Several values for one entry are separate records, joined by “and”; a condition that tells them apart may be missing. Equal values may be shown once.
Tests used:
[1] = tested on: A2780 ovarian; assay: MTT growth inhibition assay, 72 h; format: cell-based, human
[2] = tested on: U87 glioblastoma; assay: MTT growth inhibition assay, 72 h; format: cell-based, human
[3] = tested on: non-tumor-derived MCF10A breast line; assay: MTT growth inhibition assay, 72 h; format: cell-based, human
[4] = Stability in solvent systems by HPLC; format: physicochemical; settings: room temperature
Experimental: The stability of PCLB, 5CLB, and 56CLB was evaluated by HPLC. The complexes were tested in three solvent systems, 10 mM PBS (~7.4 pH), 0.9% NaCl and d.i.H2O/DMSO (50:50). This process was followed for 1 h at room temperature for each complex in each solvent system (Table 3 and Figure S32). However, it is noteworthy that when these complexes are left in solution for more extended periods, reduction to the corresponding platinum(II) species appears inevitable (Figure S33). This is likely influenced by the nature of the coordinated CLB ligand, which is highly susceptible to rapid hydrolysis due to its functional group.
The stability of PCLB, 5CLB, and 56CLB was monitored using an Agilent Technologies 1260 Infinity instrument equipped with a Phenomenex Onyx^TM Monolithic C18-reverse phase column (100 × 4.6 mm, 5 µm pore size). The mobile phase consisted of solvents, A (0.06% TFA in d.i.H2O) and B (0.06% TFA in CH3CN/d.i.H2O (90:10)). An injection volume of 5 µL was utilized and eluted with a 0–100% linear gradient over 15 min with a flow rate of 1 mL/min, at the set wavelengths of 214 and 254 nm. Each complex was dissolved separately in three solvent systems including, 10 mM phosphate-buffered saline (PBS) at ~7.4 pH, 0.9% sodium chloride (NaCl) or standard saline solution and d.i.H2O/DMSO (50:50). Each HPLC run per solvent system was followed for 1 h at room temperature.

[5] = tested on: HT29 colon cells; assay: ROS detection assay (DCFH-DA fluorescence); format: cell-based, human; settings: compounds at GI50 concentration, TBHP and NAC 20 μM
Experimental: HT29 colon cells were stained by DCFH-DA and then treated with the compounds at each specific GI50 concentration. Upon ROS production, the DCFH-DA produced […], a fluorescent product. The measured fluorescence was, therefore, proportional to the produced ROS. […] 56CLB at 24 h reported 395 RFU, 437 RFU at 48 h, and 558 RFU at 72 h (Table 6, Figure 14 and Figure S42), respectively, showing a significant production of ROS in comparison to control cells. 5CLB at 24 h produced 337 RFU, 324 RFU at 48 h, and 376 RFU at 72 h (Table 6, Figure 14 and Figure S42), respectively.
To investigate for the presence of ROS in treated cells, DCFDA/H2DCFDA-cellular ROS Assay Kit (Abcam, Cambridge, MA, USA) was used, as described. A total of 25,000 cells/mL of HT29 cells in DMEM were seeded in 96-well plates. Cells were washed with 1X kit buffer, then stained with 25 μM 2’,7’-dichlorofluorescein diacetate (DCFH-DA) and incubated for 45 min. DCFH-DA was then removed, and cells were then re-washed with 1X kit buffer, after which phenol red free media was added. Cells were then treated with GI50 drug concentration for each complex. The plates were directly scanned to measure fluorescence (relative fluorescence units (RFU)) at different time points using the Glo-Max®-Multimode microplate reader (Promega Corporation, Alexandra, VIC, Australia) at an excitation/emission of 485/535 nm. To generate the positive control (20 μM tert-butyl hydroperoxide (TBHP)), cells were washed with 1X kit buffer, and stained with DCFDA (25 μM) for 45 min. DCFDA was then removed and TBHP was added in phenol red free media. The plate was scanned to measure the RFU at different time points as mentioned above. The same method applies for the negative control treated with 20 μM N-acetylcysteine (NAC).

[6] = tested on: panel of cell lines; assay: MTT growth inhibition assay, 72 h, over the cell line panel; format: cell-based, human; settings: average over all cell lines tested; read-out: Average GI50 Values
[7] = tested on: SJ-G2 glioblastoma; assay: MTT growth inhibition assay, 72 h; format: cell-based, human
[8] = tested on: BE2-C neuroblastoma; assay: MTT growth inhibition assay, 72 h; format: cell-based, human
[9] = tested on: HT29 colon; assay: MTT growth inhibition assay, 72 h; format: cell-based, human; settings: MTT, 72 h

Structure (SMILES) | GI50 [1] | GI50 [2] | GI50 [3] | HPLC Peak Areas at 254 nm ([4]; 0.9% NaCl, 30 min) | HPLC Peak Areas at 254 nm ([4]; 0.9% NaCl, 1 h) | HPLC Peak Areas at 254 nm ([4]; PBS (~7.4 pH), 30 min) | HPLC Peak Areas at 254 nm ([4]; PBS (~7.4 pH), 1 h) | HPLC Peak Areas at 254 nm ([4]; d.i.H2O/DMSO (50:50), 30 min) | HPLC Peak Areas at 254 nm ([4]; d.i.H2O/DMSO (50:50), 1 h) | ROS Production ([5]; 24 h) | ROS Production ([5]; 48 h) | ROS Production ([5]; 72 h) | GI50 [6] | GI50 [7] | GI50 [8] | GI50 [9]
Cc1cc2cccnc2c2ncccc12.N[C@H]1CCCC[C@@H]1N.O=C([O-])CCCc1ccc(N(CCCl)CCCl)cc1.O=[N+]([O-])[O-].O=[N+]([O-])[O-].[OH-].[Pt+4] [5CLB, [Pt^IV(5-methyl-1,10-phenanthroline)(S,S-DACH)(CLB)(OH)](NO3)2] | 46 ± 0.015 nM | 250 ± 0.015 nM | 22 ± 0.0045 nM | 73.9% | 72.4% | 68.8% | 67.3% | 76.5% | 75.8% | 337 RFU and 337 ± 8 RFU | 324 RFU and 324 ± 5 RFU | 376 RFU and 376 ± 1 RFU | 94 ± 0.01 nM | 180 ± 0.02 nM | 230 ± 0.039 nM | 19 ± 0.0054 nM
Cc1c(C)c2cccnc2c2ncccc12.N[C@H]1CCCC[C@@H]1N.O=C([O-])CCCc1ccc(N(CCCl)CCCl)cc1.O=[N+]([O-])[O-].O=[N+]([O-])[O-].[OH-].[Pt+4] [56CLB, [Pt^IV(5,6-dimethyl-1,10-phenanthroline)(S,S-DACH)(CLB)(OH)](NO3)2] | 21 ± 0.0047 nM | 93 ± 0.0067 nM | 7 ± 0.004 nM | 84.6% | 82.5% | 78.2% | 75.2% | 85.0% | 84.3% | 395 RFU and 395 ± 3 RFU | 437 RFU and 437 ± 2 RFU | 558 RFU and 558 ± 2 RFU | 40 nM and 44 nM | 130 ± 0.03 nM | 140 ± 0.012 nM | 6 nM and 6.1 nM
O=C(CCCc1ccc(N(CCCl)CCCl)cc1)[O][Pt-2]12([OH])([NH2+][C@H]3CCCC[C@@H]3[NH2+]1)[n+]1cccc3ccc4ccc[n+]2c4c31.O=[N+]([O-])[O-].O=[N+]([O-])[O-] [PCLB, [Pt^IV(1,10-phenanthroline)(S,S-DACH)(CLB)(OH)](NO3)2] | 300 ± 0.048 nM | 1200 ± 0.28 nM | 300 ± 0.045 nM | 89.4% | 87.5% | 85.0% | 83.1% | 93.2% | 92.4% | 190 RFU and 190 ± 2 RFU | 244 RFU and 244 ± 7 RFU | 285 RFU and 285 ± 3 RFU | 423 ± 0.07 nM | 320 ± 0.04 nM | 440 ± 0.03 nM | 170 ± 0.046 nM

— publication PMC9499463, “Potent Chlorambucil-Platinum(IV) Prodrugs” (International Journal of Molecular Sciences, 2022)
